Data set [1] concerns the target T1, ALDH1A2 (Homo sapiens, UniProt O94788).
T1 sequence (O94788 1-518): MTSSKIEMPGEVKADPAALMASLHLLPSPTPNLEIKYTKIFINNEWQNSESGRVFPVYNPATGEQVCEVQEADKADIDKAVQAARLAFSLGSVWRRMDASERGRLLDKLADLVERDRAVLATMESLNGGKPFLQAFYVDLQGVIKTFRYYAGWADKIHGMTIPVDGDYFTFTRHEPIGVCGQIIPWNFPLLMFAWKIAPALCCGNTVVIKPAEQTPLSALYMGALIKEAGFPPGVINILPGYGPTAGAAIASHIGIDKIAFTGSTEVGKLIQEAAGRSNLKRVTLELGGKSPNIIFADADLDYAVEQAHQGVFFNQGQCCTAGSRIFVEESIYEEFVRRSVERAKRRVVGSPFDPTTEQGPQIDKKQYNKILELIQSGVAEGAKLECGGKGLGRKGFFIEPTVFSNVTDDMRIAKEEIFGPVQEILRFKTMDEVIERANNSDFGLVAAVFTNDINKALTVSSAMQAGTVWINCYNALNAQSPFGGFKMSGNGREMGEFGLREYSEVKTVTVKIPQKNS
As to the kind of experiment: Inhibition of ALDH isoenzymes (NAD(P)H formation at 340 nm, purified recombinant enzyme). The class given is biochemical. The following applies: for remaining activity at 20 µM: compound at 20 μM, read-out: ALDH1A2 % Control at 20 μM.

In data set [2] the test system is OVSAHO. As to the kind of experiment: OVSAHO Cell Viability. It counts as cell-based. Particulars: 30 μM; for OVSAHO Cell Viability (30 μM) % CD133 + % ctrl: CD133+ cells; for OVSAHO Cell Viability (30 μM) Total Cell % ctrl: total cells.
Data set [3] addresses T2, ALDH1A1 (Homo sapiens, UniProt P00352).
T2 sequence (P00352 1-501): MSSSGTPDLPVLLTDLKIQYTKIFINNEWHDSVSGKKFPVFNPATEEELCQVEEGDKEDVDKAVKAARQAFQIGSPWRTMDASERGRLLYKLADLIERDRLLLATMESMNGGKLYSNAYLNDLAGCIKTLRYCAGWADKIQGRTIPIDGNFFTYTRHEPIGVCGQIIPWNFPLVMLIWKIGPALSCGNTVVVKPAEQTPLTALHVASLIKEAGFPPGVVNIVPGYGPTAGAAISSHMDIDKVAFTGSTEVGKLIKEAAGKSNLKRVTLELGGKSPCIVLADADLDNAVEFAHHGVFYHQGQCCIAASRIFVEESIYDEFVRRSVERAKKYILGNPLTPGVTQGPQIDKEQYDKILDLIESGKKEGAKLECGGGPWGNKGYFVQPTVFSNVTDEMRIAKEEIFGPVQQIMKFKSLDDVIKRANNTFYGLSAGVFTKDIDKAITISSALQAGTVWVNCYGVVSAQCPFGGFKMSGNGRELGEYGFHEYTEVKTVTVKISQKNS
As to the kind of experiment: Inhibition of ALDH isoenzymes (NAD(P)H formation at 340 nm, purified recombinant enzyme). It counts as biochemical. Particulars: for remaining activity at 20 µM: compound at 20 μM, read-out: ALDH1A1 % Control at 20 μM.

Data set [4] concerns the target T3, ALDH2 (Homo sapiens, UniProt P05091).
T3 sequence (P05091 18-517): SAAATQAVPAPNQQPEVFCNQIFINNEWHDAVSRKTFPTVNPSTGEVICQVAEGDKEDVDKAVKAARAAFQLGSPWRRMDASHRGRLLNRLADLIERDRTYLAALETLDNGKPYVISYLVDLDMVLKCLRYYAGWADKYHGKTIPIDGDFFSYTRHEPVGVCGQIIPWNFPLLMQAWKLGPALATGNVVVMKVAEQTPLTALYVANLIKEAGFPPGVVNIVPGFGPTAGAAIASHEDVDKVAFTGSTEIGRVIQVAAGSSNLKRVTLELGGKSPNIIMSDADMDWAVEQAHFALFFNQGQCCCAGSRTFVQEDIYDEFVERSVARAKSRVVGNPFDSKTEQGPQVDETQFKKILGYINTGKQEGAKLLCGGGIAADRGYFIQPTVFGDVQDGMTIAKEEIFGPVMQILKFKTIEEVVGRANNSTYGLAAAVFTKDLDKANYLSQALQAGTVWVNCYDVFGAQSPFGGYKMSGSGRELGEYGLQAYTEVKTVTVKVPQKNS
Described as above. It counts as biochemical. Particulars: compound at 20 μM; read-out: ALDH2 % Control at 20 μM.

In data set [5] the target is T4, ALDH1A3 (Homo sapiens, UniProt P47895).
T4 sequence (P47895 1-512): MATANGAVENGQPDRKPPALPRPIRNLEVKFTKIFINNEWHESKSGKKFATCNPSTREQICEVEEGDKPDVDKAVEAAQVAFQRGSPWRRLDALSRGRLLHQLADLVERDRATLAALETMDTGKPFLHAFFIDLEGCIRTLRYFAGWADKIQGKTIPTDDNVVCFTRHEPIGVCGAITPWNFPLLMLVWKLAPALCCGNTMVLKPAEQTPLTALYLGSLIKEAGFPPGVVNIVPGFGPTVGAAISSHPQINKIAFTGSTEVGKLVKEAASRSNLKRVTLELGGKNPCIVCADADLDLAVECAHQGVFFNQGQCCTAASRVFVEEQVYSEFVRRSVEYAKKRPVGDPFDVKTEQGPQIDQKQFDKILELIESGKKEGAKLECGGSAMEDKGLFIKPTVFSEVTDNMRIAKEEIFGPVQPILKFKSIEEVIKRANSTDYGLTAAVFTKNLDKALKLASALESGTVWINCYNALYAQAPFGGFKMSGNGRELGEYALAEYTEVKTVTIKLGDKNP
The data set is described as above. The class given is biochemical. Particulars: for remaining activity at 20 µM: compound at 20 μM, read-out: ALDH1A3 % Control at 20 μM.

Where [6] appears, read: 100-200 nM enzyme, 200 μM NAD+, 100 μM propionaldehyde, pH 7.5, 25° C.
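Throughout, for ALDH2 % Control at 20 μM: run at 25 °C, started by adding substrate after 2 min preincubation, with 100-200 nM ALDH2, 200 µM NAD+, 100 µM propionaldehyde, 1% DMSO in BES buffer pH 7.5.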

Consider `Cn1ncc2c(=O)n(-c3ccccc3)c(SCc3cccc(C(=O)C(F)(F)F)c3)nc21` [Example 57, 1-methyl-5-phenyl-6-((3-(2,2,2-trifluoroacetyl)benzyl)thio)-1H-pyrazolo[3,4-d]pyrimidin-4(5H)-one], for which the IC50 (usually the midpoint of a concentration-inhibition curve) in data set [1] (setting [6]) worked out at 1720 nM; in data set [3] (setting [6]), 73 nM; in data set [5] (setting [6]), 1750 nM. In addition, the “OVSAHO Cell Viability (30 μM) % CD133 + % ctrl” value in data set [2] was found to be 84% ctrl. The “OVSAHO Cell Viability (30 μM) Total Cell % ctrl” value in data set [2] was determined as 29% ctrl. Moreover, the remaining activity at 20 µM in data set [4] turned out to be 100%.

As to `CCC(Sc1nc2c(cnn2C)c(=O)n1-c1ccccc1)c1ccccc1` (stereo not drawn) [Example 70, 1-methyl-5-phenyl-6-((1-phenylpropyl)thio)-1H-pyrazolo[3,4-d]pyrimidin-4(5H)-one], the remaining activity at 20 µM is -14% in data set [1], -5% in data set [3], 90% in data set [4] and -10% in data set [5]. For the same compound, the “OVSAHO Cell Viability (30 μM) % CD133 + % ctrl” value in data set [2] is on record as 56% ctrl. Also, the “OVSAHO Cell Viability (30 μM) Total Cell % ctrl” value in data set [2] is given as 17% ctrl.

As to `CC1(Cn2cc3c(=O)n(-c4ccccc4)c(SCc4cccc(F)c4)nc3n2)COC1` [Example 67, 6-((3-fluorobenzyl)thio)-2-((3-methyloxetan-3-yl)methyl)-5-phenyl-2H-pyrazolo[3,4-d]pyrimidin-4(5H)-one], the remaining activity at 20 µM stood at 21% in data set [1], 7% in data set [3], 97% in data set [4] and 4% in data set [5]. Also, the “OVSAHO Cell Viability (30 μM) % CD133 + % ctrl” value in data set [2] worked out at 100% ctrl. Also, in data set [2], the “OVSAHO Cell Viability (30 μM) Total Cell % ctrl” value was determined as 16% ctrl.
